Reference: BindingDB's records for doi:10.3109/14756366.2011.599323 (China Pharmaceutical University, 2012)
Where a SMILES comes first, the peptide text is derived from it.

Columns and labels:
[1] = biological target: Matrix metalloproteinase-9 (Homo sapiens, UniProt P14780); assay: MMP-9 Activity Assay; details: pH 7.4; 37 °C
Method: Recombinant human MMP-9 was expressed in Sf9 insect cells and purified by gelatin-Sepharose affinity chromatography as described previously16,17. It was activated with 0.01 μM of the catalytic domain of MMP-3 (cd-MMP-3, Calbiochem) in assay buffer (100 mM Tris/HCl, pH 7.4, 100 mM NaCl, 10 mM CaCl2 and 0.01% Tween-20) at 92 ng/μl (1 μM) as a stock solution as described8. Hydrolysis of the substrate Mca-Pro-Leu-Gly-Leu-Dpa-Ala-Arg-NH2 (substrate I, R&D Systems Europe Ltd) was monitored by measuring the increase in fluorescence (excitation wavelength = 328 nm, emission wavelength = 392 nm) [Whittaker et al., Chem. Rev., 99:2735-2776]. All assays were performed at 37°C in 100 μl assay buffer. The reaction was started by adding 10 μl gelatinase B stock solution (0.92 ng/μl) to a 100 μl reaction system with a substrate concentration of 10 μM, after which the rate of substrate hydrolysis was monitored.

[2] = biological target: Disintegrin and metalloproteinase domain-containing protein 17 (Homo sapiens, UniProt P78536); assay: TACE Activity Assay; details: pH 9.0
Method: TACE was purchased as an active form enzyme (R&D Systems). Hydrolysis of the TACE-substrate Mca-Pro-Leu-Ala-Gln-Ala-Val-Dpa-Arg-Ser-Ser-Ser-Arg-NH (substrateIII, R&D Systems Europe Ltd) was monitored by measuring the increase in fluorescence (excitation wavelength = 320 nm, emission wavelength = 405 nm). TACEassays were performed at 37°C in 100 μl assay buffer. The reaction was started by adding 4 μl TACE stock solution (1 ng/μl) to a 100 μl reaction system with a final substrate concentration of 10 μM, after which the rate of substrate hydrolysis was monitored.

Stromelysin-1 = Stromelysin-1 (Homo sapiens, UniProt P08254); assay: MMP-3 Activity Assay; details: pH 7.4; 37 °C
Method: The activity of recombinant human MMP-3 (catalytic domain, Calbiochem) was detected with the substrate Mca-Arg-Pro-Lys-Pro-Val-Glu-Nval-Trp-Arg-Lys(Dnp)-NH2 (substrate II, R&D Systems Europe Ltd) (excitation wavelength = 320 nm, emission wavelength = 405 nm). These assays were performed at 37°C in 100 μl assay buffer. The reaction was started by adding 10 μl MMP-3 stock solution (1 ng/μl) to a 100 μl reaction system with a final substrate concentration of 10 μM, after which the rate of substrate hydrolysis was monitored.

Neutrophil collagenase = Neutrophil collagenase (Homo sapiens, UniProt P22894); assay: MMP-8 Activity Assay; details: pH 7.4; 37 °C
Method: Recombinant human MMP-8 was purchased as an active form enzyme (Sino Biological Inc.). The enzyme activity was detected with the same fluorogenic peptidesubstrate as that for MMP-9. All MMP-8 assays were performed at 37°C in 100 μl assay buffer with 20 μl recombinant human MMP-8 (2 ng/μl). The final substrateconcentration was 10 μM.

Chain of Matrix metalloproteinase-9 (P14780 whole entry, the tested form may be a part): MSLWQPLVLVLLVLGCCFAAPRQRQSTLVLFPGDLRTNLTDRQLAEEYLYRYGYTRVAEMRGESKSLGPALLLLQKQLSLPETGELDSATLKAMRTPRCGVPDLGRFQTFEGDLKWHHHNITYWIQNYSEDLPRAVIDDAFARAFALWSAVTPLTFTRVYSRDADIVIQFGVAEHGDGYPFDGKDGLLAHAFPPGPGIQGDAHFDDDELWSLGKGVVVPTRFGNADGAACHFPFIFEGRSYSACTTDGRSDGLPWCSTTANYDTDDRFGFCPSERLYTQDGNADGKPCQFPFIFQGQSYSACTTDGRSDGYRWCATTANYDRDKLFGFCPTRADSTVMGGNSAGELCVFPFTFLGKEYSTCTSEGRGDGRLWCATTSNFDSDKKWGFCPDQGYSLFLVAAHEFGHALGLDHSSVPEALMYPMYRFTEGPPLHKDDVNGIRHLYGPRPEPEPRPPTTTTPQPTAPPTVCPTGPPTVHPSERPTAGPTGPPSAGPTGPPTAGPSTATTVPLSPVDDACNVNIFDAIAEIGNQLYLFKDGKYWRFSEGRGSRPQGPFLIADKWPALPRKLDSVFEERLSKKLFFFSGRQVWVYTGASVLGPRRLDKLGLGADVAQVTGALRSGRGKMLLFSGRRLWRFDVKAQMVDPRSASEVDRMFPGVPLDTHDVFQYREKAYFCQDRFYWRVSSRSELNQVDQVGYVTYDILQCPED
Chain of Neutrophil collagenase (P22894 whole entry): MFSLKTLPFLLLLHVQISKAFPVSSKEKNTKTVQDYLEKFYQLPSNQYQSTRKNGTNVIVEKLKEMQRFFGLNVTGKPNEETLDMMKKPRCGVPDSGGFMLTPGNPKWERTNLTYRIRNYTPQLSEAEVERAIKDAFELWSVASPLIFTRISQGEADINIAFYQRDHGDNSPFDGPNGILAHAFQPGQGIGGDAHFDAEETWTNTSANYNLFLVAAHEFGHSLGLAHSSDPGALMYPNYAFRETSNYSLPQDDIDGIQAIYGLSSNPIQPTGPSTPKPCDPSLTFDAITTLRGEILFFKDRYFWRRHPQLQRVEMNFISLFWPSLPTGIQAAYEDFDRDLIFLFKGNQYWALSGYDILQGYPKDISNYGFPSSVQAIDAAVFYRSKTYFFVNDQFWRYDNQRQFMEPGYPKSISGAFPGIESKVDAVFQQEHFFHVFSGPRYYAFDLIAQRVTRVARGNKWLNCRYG
Chain of Stromelysin-1 (P08254 whole entry, the tested form may be a part): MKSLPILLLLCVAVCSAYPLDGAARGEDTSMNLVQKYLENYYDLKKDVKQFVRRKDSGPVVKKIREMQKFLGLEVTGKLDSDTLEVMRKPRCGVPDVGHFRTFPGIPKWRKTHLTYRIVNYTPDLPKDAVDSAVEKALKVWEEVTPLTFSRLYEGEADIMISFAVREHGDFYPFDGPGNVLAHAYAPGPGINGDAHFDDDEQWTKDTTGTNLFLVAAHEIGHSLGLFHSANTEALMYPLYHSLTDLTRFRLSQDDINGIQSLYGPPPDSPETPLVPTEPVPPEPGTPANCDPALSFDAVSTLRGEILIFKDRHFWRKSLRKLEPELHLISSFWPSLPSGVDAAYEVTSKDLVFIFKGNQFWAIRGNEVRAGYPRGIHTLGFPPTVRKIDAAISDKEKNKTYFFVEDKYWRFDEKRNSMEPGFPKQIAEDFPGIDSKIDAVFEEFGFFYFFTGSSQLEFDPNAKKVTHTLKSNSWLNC
Chain of Disintegrin and metalloproteinase domain-containing protein 17 (P78536 whole entry, the tested form may be a part): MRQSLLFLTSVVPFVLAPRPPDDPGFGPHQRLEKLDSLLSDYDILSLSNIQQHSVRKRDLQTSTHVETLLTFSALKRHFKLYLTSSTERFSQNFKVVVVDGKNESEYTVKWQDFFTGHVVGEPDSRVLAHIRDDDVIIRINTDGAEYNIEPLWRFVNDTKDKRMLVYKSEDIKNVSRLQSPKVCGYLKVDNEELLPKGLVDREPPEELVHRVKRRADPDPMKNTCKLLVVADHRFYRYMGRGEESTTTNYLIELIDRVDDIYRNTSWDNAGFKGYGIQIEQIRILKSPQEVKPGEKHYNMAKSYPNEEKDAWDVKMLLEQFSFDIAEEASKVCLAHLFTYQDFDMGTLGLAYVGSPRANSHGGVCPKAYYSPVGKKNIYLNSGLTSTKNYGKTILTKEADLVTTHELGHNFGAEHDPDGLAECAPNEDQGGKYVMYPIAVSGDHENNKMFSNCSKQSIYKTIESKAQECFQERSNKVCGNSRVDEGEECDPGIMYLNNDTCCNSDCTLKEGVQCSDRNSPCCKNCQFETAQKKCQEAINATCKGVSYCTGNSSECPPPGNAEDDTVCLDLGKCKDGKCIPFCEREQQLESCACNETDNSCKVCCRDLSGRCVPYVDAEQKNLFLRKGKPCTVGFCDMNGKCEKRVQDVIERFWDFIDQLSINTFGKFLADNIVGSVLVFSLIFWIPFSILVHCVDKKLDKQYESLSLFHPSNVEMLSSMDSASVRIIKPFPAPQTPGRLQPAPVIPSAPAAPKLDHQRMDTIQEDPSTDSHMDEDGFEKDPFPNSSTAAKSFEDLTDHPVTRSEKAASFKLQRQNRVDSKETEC

How did the IC50 [1] turn out when `N=C(N)NCCC[C@H](N)C(=O)N[C@@H](CS)C(=O)N[C@H](Cc1ccc(-c2ccccc2)cc1)C(=O)N[C@H](CCCNC(=N)N)C(=O)O` [Arg-Cys-(D-Bip)-(D-Arg)] (HELM PEPTIDE1{R.C.[O=C([C@@H](Cc1ccc(-c2ccccc2)cc1)N[*:1])[*:2]].[dR]}$$$$V2.0) was run?
Its IC50 is 0.75 µM.

And the IC50 [2]?
The IC50 was 20 µM.

What about the IC50 (Stromelysin-1) of the same compound?
The IC50 was 19.5 µM.

And the IC50 (Neutrophil collagenase)?
The IC50 was 2.3 µM.

What does the source list for `N=C(N)NCCC[C@H](NC(=O)[C@H](Cc1ccc(-c2ccccc2)cc1)NC(=O)[C@@H](CS)NC(=O)[C@@H](N)CCCNC(=N)N)C(=O)O` [Arg-(D-Cys)-Bip-Arg] (HELM PEPTIDE1{R.[dC].[O=C([C@H](Cc1ccc(-c2ccccc2)cc1)N[*:1])[*:2]].R}$$$$V2.0)?
IC50 [1]: 0.9 µM; IC50 [2]: 2.5 µM; IC50 (Stromelysin-1): 22.5 µM; IC50 (Neutrophil collagenase): 0.9 µM
